Test results: patent US9958439B2, “Carbohydrate detection” (RICHTER LIFE SCIENCE DEVELOPMENT AB, priority 2012, dated 2018)
Read-outs that look alike come from different tables or passages of the source.

Assays:
[1] = for RFU change (Correlation analysis): probe-specific excitation λ, emission 545 nm
Summary of the method: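 LCO probes at 3 μM mixed with serial two-fold dilutions of carbohydrate in dH2O (10–0.039 or 5–0.019 mg/ml, depending on carbohydrate), in triplicate. Excitation scanned 300–500 nm or fixed per probe (λmax or lowest background), emission at 545 nm. Detection taken as reproducible λmax/RFU shift vs no-carbohydrate control; RFU regressed linearly on concentration.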

[2] = Summary of the method: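 LCO probes at 3 μM mixed with serial two-fold carbohydrate dilutions in water (10–0.039 or 5–0.019 mg/ml), run in triplicate. Excitation scanned 300–500 nm with emission at 545 nm; detection based on reproducible λmax or RFU shift against the no-carbohydrate control, with linear regression of RFU on concentration.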
[3] = remark: listed apart in the source
Summary of the method: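 3 μM of each LCO probe was added to serial two-fold carbohydrate dilutions in water (10–0.039 or 5–0.019 mg/ml). Excitation spectra were scanned 300–500 nm with emission at 545 nm, in triplicate. Detection was defined as a reproducible shift in λmax and/or RFU versus negative control, with linear regression of RFU against concentration.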

[4] = for RFU change (Correlation analysis) / RFU change (Signal deviation with increasing [Carbohydrate]) / λmax change: 3 μM probe; for RFU change (Correlation analysis): probe-specific excitation λ, emission 545 nm; for RFU change (Signal deviation with increasing [Carbohydrate]) / λmax change: spectral analysis, Excitation 300-500, Emission 545; for carbohydrate can be detected and/or differentiated by the LCO: conclusion from change in signal magnitude and/or shift in λmax; for Gradient Parameters (gradient of regression line) / Linear relationship / Quality of Gradient: linear regression
Summary of the method: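 Each LCO probe at 3 μM was added to two-fold serial dilutions of carbohydrate in dH2O (10–0.039 mg/ml for β-1,3-glucan, cellulose, chitin; 5–0.019 mg/ml for the others), run in triplicate. Excitation spectra were scanned 300–500 nm with emission at 545 nm. Detection was a reproducible λmax and/or RFU shift versus negative control, with linear regression of RFU against concentration.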

[5] = remark: listed apart in the source
Summary of the method: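 LCO probes (3 μM) were added to serial two-fold dilutions of carbohydrate suspensions in dH2O, with excitation scanned 300–500 nm and emission at 545 nm. Detection was a reproducible λmax and/or RFU change versus no-carbohydrate control. RFU was regressed linearly against concentration at the λmax or the lowest-background excitation.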

[6] = for RFU change (Correlation analysis): probe-specific excitation λ, emission 545 nm; for carbohydrate can be detected and/or differentiated by the LCO: conclusion from change in signal magnitude and/or shift in λmax; for Gradient Parameters (gradient of regression line) / Linear relationship / Quality of Gradient: linear regression
Summary of the method: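 LCO probes at 3 μM mixed with serial twofold carbohydrate dilutions in dH2O (10–0.039 or 5–0.019 mg/ml, depending on carbohydrate). Excitation scanned 300–500 nm, emission read at 545 nm; detection defined as reproducible shift in λmax and/or RFU relative to negative control, with linear regression of RFU against concentration.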

[7] = test system: biofilm (curli, cellulose) of S. enteritidis wt strain 3934 and isogenic mutants; conditions: 2 μg/ml LCO, unprocessed cultures, excitation 300-500 nm, emission 545 nm
Experimental: A fresh overnight culture of the clinically derived S. enteritidis wt strain 3934 and isogenic mutants (ΔbscA; ΔcsgA and ΔcsgD) was inoculated into fresh LB and cultivated at 37° C. to OD600=0.6. […] 50 μl of each culture was next inoculated in triplicates into separate wells of 96-well plates and incubated at 28° C. for 48 hours.
After removing the biofilm cultures from the incubator, no processing steps were implemented before the detection of LCO signals. […] Emission spectra for curli bound LCOs was collected by reading the emission signal between 500-700 nm when the sample was excited at 405 nm. Emission spectra for cellulose bound LCOs was collected by reading the emission signal between 520-700 nm when the sample was excited at 500 nm.

[8] = test system: biofilm of S. enteritidis wt strain 3934 and isogenic mutants ΔbscA, ΔcsgA, ΔcsgD; assay: LCO assay for fluorescence confocal analysis of biofilm and biofilm morphology; type: cell-based, Salmonella enteritidis; conditions: 2 μg/ml LCO, fixed and washed cover-slip biofilm
Text: Fluorescence confocal analysis (left side) and phase contrast analysis (right side) of the same slide are shown side by side.
Glass cover-slips were introduced to the wells of a 6-well plate (according to the set-up shown in FIG. 2A) to provide surfaces for biofilm formation, which at the end of experiment could be easily removed for microscope analysis. To prepare for the biofilm experiment, individual cultures of S. enteritidis wt strain 3934 and isogenic mutants ΔbscA, ΔcsgA, and ΔcsgD were grown in LB medium in flasks overnight. Each culture was diluted 100-fold in fresh LB and cultivated in a shaking incubator (230 rpm) at 37° C. to OD600=0.6. Cultures were diluted to a culture density of 10^5 CFU/ml in LB without salt and dispensed into the cover-slip containing 6 well plates in 8 ml aliquots. After incubating the plates for 48 h at 28° C., glass cover-slips were removed and washed twice with PBS before fixation in 4 ml of 4% formaldehyde for 1 h. […] PBS functioned as the negative control, used to assess the level of auto-fluorescence. Treated slides were then washed twice with PBS and mounted with Vectashield® for fluorescence-based confocal laser scanning microscopy analysis. Specifically, the edge of the biofilm formed at the liquid air interface was visualized using the appropriate fluorescence filters. […] The right side is an overlay of an optical inspection of bacterial presence by phase contrast with LCO fluorescence. Phase contrast is a traditional method for visual confirmation of biofilm attachment on surfaces.

[9] = Cellulobiose 5-0.019 mg/ml, 3 μM probe, spectral analysis, Excitation 300-500, Emission 545
[10] = amylose concentration vs RFU, linear regression
[11] = cellulobiose concentration vs RFU, linear regression
[12] = glucose concentration vs RFU, linear regression
[13] = Chondroitin Sulfate A 5-0.019 mg/ml, 3 μM probe, spectral analysis, Excitation 300-500, Emission 545
[14] = Chondroitin Sulfate A concentration vs RFU, linear regression
[15] = β-1,3-glucan concentration vs RFU
[16] = Sodium alginate 5-0.019 mg/ml, 3 μM probe, spectral analysis, Excitation 300-500, Emission 545
[17] = sodium alginate concentration vs RFU, linear regression
[18] = Glycogen 5-0.019 mg/ml, 3 μM probe, spectral analysis, Excitation 300-500, Emission 545

Cl.Cl.c1csc(-c2cc(CCn3ccnc3)c(-c3ccc(-c4sc(-c5cccs5)cc4CCn4ccnc4)s3)s2)c1 [pHTIm, penta Hydrogen Thiophene Imidazole]
RFU change (Correlation analysis) ([1]; Amylose 5-0.019 mg/ml, 3 μM probe): Decreases | RFU change (Signal deviation with increasing [Carbohydrate]) ([1]; Amylose 5-0.019 mg/ml, 3 μM probe, spectral analysis, Excitation 300-500, Emission 545): Decreases | carbohydrate can be detected and/or differentiated by the LCO ([1]; Amylose, conclusion from change in signal magnitude and/or shift in λmax): can be detected and/or differentiated | RFU change (Correlation analysis) ([1]; Cellulobiose 5-0.019 mg/ml, 3 μM probe): Unclear | RFU change (Signal deviation with increasing [Carbohydrate]) [1, 9]: Increases | λmax change [1, 9]: No change | Gradient Parameters (gradient of regression line) [1, 10]: −655 ± 110 | Linear relationship [1, 10]: Significant | Quality of Gradient [1, 10]: Negative | Gradient Parameters (gradient of regression line) [1, 11]: 75.1 ± 61.5 | Quality of Gradient [1, 11]: Horizontal | Sensitivity ([1]; to amylose): Yes | Sensitivity ([1]; to cellulobiose): No | RFU change (Correlation analysis) ([2]; Glucose 5-0.019 mg/ml, 3 μM probe, probe-specific excitation λ, emission 545 nm): Unclear | RFU change (Signal deviation with increasing [Carbohydrate]) ([2]; Glucose 5-0.019 mg/ml, 3 μM probe, spectral analysis, Excitation 300-500, Emission 545): Unclear | Gradient Parameters (gradient of regression line) [2, 12]: 10.9 ± 25.5 | Quality of Gradient [2, 12]: Horizontal | Sensitivity ([2]; to glucose): No | RFU change (Correlation analysis) ([3]; Chondroitin Sulfate A 5-0.019 mg/ml, 3 μM probe, probe-specific excitation λ, emission 545 nm): Increases | RFU change (Signal deviation with increasing [Carbohydrate]) [3, 13]: Increases | λmax change [3, 13]: Redshift | Gradient Parameters (gradient of regression line) [3, 14]: 1177 ± 203.6 | Linear relationship [3, 14]: Significant | Quality of Gradient [3, 14]: Positive | carbohydrate can be detected and/or differentiated by the LCO ([3]; Chondroitin sulfate A, conclusion from change in signal magnitude and/or shift in λmax): can be detected and/or differentiated | Sensitivity ([3]; to Chondroitin Sulfate A): Yes | RFU change (Correlation analysis) ([4]; Cellulose 10-[…]): Increase | RFU change (Signal deviation with increasing [Carbohydrate]) ([4]; Cellulose 10-[…]): Increase | λmax change ([4]; Cellulose 10-[…]): Redshift | carbohydrate can be detected and/or differentiated by the LCO ([4]; Cellulose): can be detected and/or differentiated | RFU change (Correlation analysis) ([4]; Chitin 10-[…]): Decreases | RFU change (Signal deviation with increasing [Carbohydrate]) ([4]; Chitin 10-[…]): Decrease | λmax change ([4]; Chitin 10-[…]): Redshift | carbohydrate can be detected and/or differentiated by the LCO ([4]; Chitin): can be detected and/or differentiated | Gradient Parameters (gradient of regression line) ([4]; cellulose concentration vs RFU): 3063 ± 564.3 | Linear relationship ([4]; cellulose concentration vs RFU): Significant | Quality of Gradient ([4]; cellulose concentration vs RFU): Positive | Gradient Parameters (gradient of regression line) ([4]; chitin concentration vs RFU): −383.6 ± 71.4 | Linear relationship ([4]; chitin concentration vs RFU): Significant | Quality of Gradient ([4]; chitin concentration vs RFU): Negative | Sensitivity ([4]; to cellulose): Yes | Sensitivity ([4]; to chitin): Yes | Sensitivity ([4]; to β-1,3-glucan): No | RFU change (Correlation analysis) ([4]; β-1,3-glucan 10-[…]): Decrease | RFU change (Signal deviation with increasing [Carbohydrate]) ([4]; β-1,3-glucan 10-[…]): Decrease | λmax change ([4]; β-1,3-glucan 10-[…]): Redshift | Gradient Parameters (gradient of regression line) [4, 15]: −177.1 ± 89.6 | Quality of Gradient [4, 15]: Horizontal | RFU change (Correlation analysis) ([5]; Sodium alginate 5-0.019 mg/ml, 3 μM probe, probe-specific excitation λ, emission 545 nm): Increases | RFU change (Signal deviation with increasing [Carbohydrate]) [5, 16]: Increases | λmax change [5, 16]: Redshift | carbohydrate can be detected and/or differentiated by the LCO ([5]; Sodium alginate, conclusion from change in signal magnitude and/or shift in λmax): can be detected and/or differentiated | Gradient Parameters (gradient of regression line) [5, 17]: 266 ± 29.2 | Linear relationship [5, 17]: Significant | Quality of Gradient [5, 17]: Positive | Sensitivity ([5]; to sodium alginate): Yes | RFU change (Correlation analysis) ([6]; Glycogen 5-0.019 mg/ml, 3 μM probe): Increases | RFU change (Signal deviation with increasing [Carbohydrate]) [6, 18]: Increases | λmax change [6, 18]: Redshift | carbohydrate can be detected and/or differentiated by the LCO ([6]; Glycogen): can be detected and/or differentiated | RFU change (Correlation analysis) ([6]; Heparin 5-0.019 mg/ml, 3 μM probe): Increases | RFU change (Signal deviation with increasing [Carbohydrate]) ([6]; Heparin 5-0.019 mg/ml, 3 μM probe, spectral analysis, Excitation 300-500, Emission 545): Unclear | carbohydrate can be detected and/or differentiated by the LCO ([6]; Heparin): can be detected and/or differentiated | Gradient Parameters (gradient of regression line) ([6]; glycogen concentration vs RFU): 835.8 ± 26.6 | Linear relationship ([6]; glycogen concentration vs RFU): Significant | Quality of Gradient ([6]; glycogen concentration vs RFU): Positive | Gradient Parameters (gradient of regression line) ([6]; heparin concentration vs RFU): 96.3 ± 36.8 | Linear relationship ([6]; heparin concentration vs RFU): Significant | Quality of Gradient ([6]; heparin concentration vs RFU): Positive | Sensitivity ([6]; to glycogen): Yes | Sensitivity ([6]; to heparin): Yes

hepta Hydrogen Thiophene Acetic Acid [h-HTAA]
differentiation of biofilm morphologies of isogenic mutants by excitation spectra [7]: did not differentiate biofilm morphologies | fluorescent signal from the LCO on biofilm versus phase contrast microscopy [8]: coincides with visible bacteria aggregates
